Assays:
[1] = Clearance in rat at 2 mg/kg, iv and 10 mg/kg, po; type: ADME, organism-based; details: in vivo
[2] = molecular target: T1, Inhibitor of nuclear factor kappa-B kinase subunit alpha (Homo sapiens, UniProt O15111); assay: Inhibition of IKK1
T1 sequence (O15111 whole entry): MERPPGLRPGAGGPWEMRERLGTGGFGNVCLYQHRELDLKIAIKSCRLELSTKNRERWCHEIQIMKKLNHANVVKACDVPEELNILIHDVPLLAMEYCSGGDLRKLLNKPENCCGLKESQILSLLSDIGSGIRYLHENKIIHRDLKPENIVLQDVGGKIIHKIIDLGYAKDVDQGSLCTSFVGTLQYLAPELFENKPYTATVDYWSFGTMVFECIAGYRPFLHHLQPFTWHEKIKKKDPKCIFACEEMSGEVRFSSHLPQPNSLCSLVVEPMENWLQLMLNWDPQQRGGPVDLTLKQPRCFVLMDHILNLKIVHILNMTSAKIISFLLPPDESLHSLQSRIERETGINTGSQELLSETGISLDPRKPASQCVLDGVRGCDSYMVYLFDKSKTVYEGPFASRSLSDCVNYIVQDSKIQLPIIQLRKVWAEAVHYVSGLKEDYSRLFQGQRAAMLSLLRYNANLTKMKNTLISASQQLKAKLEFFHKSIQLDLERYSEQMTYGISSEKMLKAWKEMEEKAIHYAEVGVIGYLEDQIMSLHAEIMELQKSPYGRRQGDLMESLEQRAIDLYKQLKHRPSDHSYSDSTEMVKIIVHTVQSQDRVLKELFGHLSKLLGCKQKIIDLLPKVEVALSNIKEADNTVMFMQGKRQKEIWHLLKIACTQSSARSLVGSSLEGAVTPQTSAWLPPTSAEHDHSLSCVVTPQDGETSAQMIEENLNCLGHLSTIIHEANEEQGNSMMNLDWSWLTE

Rattus norvegicus = assay: Total AUC in rat at 2 mg/kg, iv and 10 mg/kg, po; type: ADME, organism-based; details: in vivo
[3] = Mean residence time in mouse at 2 mg/kg, iv and 10 mg/kg, po; type: ADME, organism-based; details: in vivo

CCNc1nc2sc(-c3cccc([C@H](C)NC(C)=O)c3)nc2c2c1ncn2C
clearance [1]: 63 mL/min/kg
IC50 [2]: 420 nM
AUC (Rattus norvegicus): 4.63 µM
MRT [3]: 2.9 h
